Read-outs that look alike come from different tables or passages of the source.
Target: T1, SIRT1 (Homo sapiens, UniProt Q96EB6)
T1 sequence (Q96EB6 1-747): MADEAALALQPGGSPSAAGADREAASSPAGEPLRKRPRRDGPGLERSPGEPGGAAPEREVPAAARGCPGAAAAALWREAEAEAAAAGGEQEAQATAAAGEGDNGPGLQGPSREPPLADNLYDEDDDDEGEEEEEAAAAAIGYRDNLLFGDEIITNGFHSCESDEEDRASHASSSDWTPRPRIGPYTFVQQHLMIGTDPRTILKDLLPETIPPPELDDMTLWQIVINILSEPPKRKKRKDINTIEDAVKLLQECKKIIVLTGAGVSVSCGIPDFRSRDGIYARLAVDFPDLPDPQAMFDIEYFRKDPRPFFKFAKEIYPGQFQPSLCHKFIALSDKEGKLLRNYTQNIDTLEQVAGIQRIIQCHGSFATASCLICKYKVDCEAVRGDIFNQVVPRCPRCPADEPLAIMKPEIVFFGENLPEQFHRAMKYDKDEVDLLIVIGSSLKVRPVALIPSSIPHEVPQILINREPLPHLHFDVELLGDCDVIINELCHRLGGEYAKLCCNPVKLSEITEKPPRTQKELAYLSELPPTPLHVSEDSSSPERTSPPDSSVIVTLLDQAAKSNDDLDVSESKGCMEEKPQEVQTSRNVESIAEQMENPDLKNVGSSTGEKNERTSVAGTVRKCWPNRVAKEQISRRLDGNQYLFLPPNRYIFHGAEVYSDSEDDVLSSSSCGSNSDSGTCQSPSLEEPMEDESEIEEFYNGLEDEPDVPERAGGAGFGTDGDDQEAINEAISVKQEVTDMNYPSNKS
Test: Trp mass spectrometry assay of SIRT1 activation (Ac-R-H-K-K(Ac)-W-NH2 peptide)
Format: biochemical
Details: for Emax: 25 min, read-out: TRP MAX RESP (percent maximum fold activation)
Method in brief: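 N-terminal His-tagged human SIRT1, expressed in BL21(DE3) and purified, was incubated 25 min with an acetylated Trp peptide and NAD plus test compound at varying concentrations, then quenched with formic acid. OAADPR or deacetylated peptide was quantified by mass spectrometry versus compound-free control; EC1.5 is the concentration giving 50% activity increase, with percent maximum activation.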

[1] = Trp peptide 0.5 μM, 120 μM βNAD+, 10 nM SIRT1, 25 min at 25° C., relative to control (100%)
[2] = Trp peptide 0.5 μM, 120 μM βNAD+, 10 nM SIRT1, 25 min at 25° C.

| Structure (SMILES) | Emax [1] [%] | TRP Activity (EC1.5, concentration of test compound that results in 150% activation of SIRT1) [2] | Emax [%] |
| --- | --- | --- | --- |
| C[C@@H](NC(=O)c1ccc2c(n1)N(C(=O)Nc1cc(-c3cnco3)ccn1)[C@H]1CCN2C1)C(F)(F)F [Example 134, (4S)—N5-(4-(oxazol-5-yl)pyridin-2-yl)-N7-((R)-1,1,1-trifluoropropan-2-yl)-3,4-dihydro-1,4-methanopyrido[2,3-b][1,4]diazepine-5,7(2H)-dicarboxamide] | > 150 | A (EC1.5<1 μM) | – |
| C[C@@H](NC(=O)c1ccc2c(n1)N(C(=O)Nc1n[nH]c3ncccc13)[C@H]1CCN2C1)C(F)(F)F [Example 163, (4S)—N5-(1H-pyrazolo[3,4-b]pyridin-3-yl)-N7-((R)-1,1,1-trifluoropropan-2-yl)-3,4-dihydro-1,4-methanopyrido[2,3-b][1,4]diazepine-5,7(2H)-dicarboxamide] | > 150 | A (EC1.5<1 μM) | – |
| N#Cc1ccc(NC(=O)N2c3nc(C(=O)NCC(F)(F)F)ccc3N3CC[C@H]2C3)nc1 [Example 158, (4S)—N5-(5-cyanopyridin-2-yl)-N7-(2,2,2-trifluoroethyl)-3,4-dihydro-1,4-methanopyrido[2,3-b][1,4]diazepine-5,7(2H)-dicarboxamide] | > 150 | A (EC1.5<1 μM) | – |
| Cc1ncc(-c2ccnc(NC(=O)N3c4nc(C(=O)N[C@H](C)C(F)(F)F)ccc4N4CC[C@H]3C4)n2)o1 [Example 156, (4S)—N5-(4-(2-methyloxazol-5-yl)pyrimidin-2-yl)-N7-((R)-1,1,1-trifluoropropan-2-yl)-3,4-dihydro-1,4-methanopyrido[2,3-b][1,4]diazepine-5,7(2H)-dicarboxamide] | > 150 | A (EC1.5<1 μM) | – |
| Cc1ccc(NC(=O)N2c3nc(C(=O)NCC4CC4)ccc3N3CC[C@H]2C3)nc1 [Example 111, (4S)—N7-(cyclopropylmethyl)-N5-(5-methylpyridin-2-yl)-3,4-dihydro-1,4-methanopyrido[2,3-b][1,4]diazepine-5,7(2H)-dicarboxamide] | > 150 | A (EC1.5<1 μM) | – |
| O=C(NC1CCCCC1)c1ccc2c(n1)N(C(=O)Nc1ccccn1)[C@H]1CCN2C1 [Example 27, (4S)—N7-cyclohexyl-N5-(pyridin-2-yl)-3,4-dihydro-1,4-methanopyrido[2,3-b][1,4]diazepine-5,7(2H)-dicarboxamide] | – | A (EC1.5<1 μM) | > 150 |
| CC(F)(F)CNC(=O)c1ccc2c(n1)N(C(=O)Nc1cc(OC[C@H](O)CO)ccn1)[C@H]1CCN2C1 [Example 183, (4S)—N7-(2,2-difluoropropyl)-N5-(4-((R)-2,3-dihydroxypropoxy)pyridin-2-yl)-3,4-dihydro-1,4-methanopyrido[2,3-b][1,4]diazepine-5,7(2H)-dicarboxamide] | > 150 | B (EC1.5 1-25 μM) | – |
| C[C@@H](NC(=O)c1ccc2c(n1)N(C(=O)Nc1cc(-c3cncn3C)ccn1)[C@H]1CCN2C1)C(F)(F)F [Example 86, (4S)—N5-(4-(1-methyl-1H-imidazol-5-yl)pyridin-2-yl)-N7-((R)-1,1,1-trifluoropropan-2-yl)-3,4-dihydro-1,4-methanopyrido[2,3-b][1,4]diazepine-5,7(2H)-dicarboxamide] | > 150 | A (EC1.5<1 μM) | – |
| O=C(NCC1CC1)c1ccc2c(n1)N(C(=O)Nc1cc3c(cn1)OCCC3)[C@H]1CCN2C1 [Example 145, (4S)—N7-(cyclopropylmethyl)-N5-(3,4-dihydro-2H-pyrano[2,3-c]pyridin-6-yl)-3,4-dihydro-1,4-methanopyrido[2,3-b][1,4]diazepine-5,7(2H)-dicarboxamide] | > 150 | A (EC1.5<1 μM) | – |

The next lines start with results.

| Emax [1] [%] | TRP Activity (EC1.5, concentration of test compound that results in 150% activation of SIRT1) [2] | Structure (SMILES) | Emax [%] |
| --- | --- | --- | --- |
| > 150 | A (EC1.5<1 μM) | CC(C)[C@@H](NC(=O)c1ccc2c(n1)N(C(=O)Nc1ccccn1)[C@H]1CCN2C1)C(F)(F)F [Example 29, (4S)—N5-(pyridin-2-yl)-N7-((R)-1,1,1-trifluoro-3-methylbutan-2-yl)-3,4-dihydro-1,4-methanopyrido[2,3-b][1,4]diazepine-5,7(2H)-dicarboxamide] | – |
| > 150 | A (EC1.5<1 μM) | COCC(NC(=O)c1ccc2c(n1)N(C(=O)Nc1ccccn1)[C@H]1CCN2C1)C(F)(F)F (stereo partly drawn) [Example 9, (4S)—N-5-(pyridin-2-yl)-N-7-(1,1,1-trifluoro-3-methoxypropan-2-yl)-3,4-dihydro-1,4-methanopyrido[2,3-b][1,4]diazepine-5,7(2H)-dicarboxamide] | – |
| > 150 | B (EC1.5 1-25 μM) | O=C(N[C@@H](CO)C(F)(F)F)c1ccc2c(n1)N(C(=O)Nc1cccnc1)[C@H]1CCN2C1 [Example 224, (4S)—N5-(pyridin-3-yl)-N7-((S)-1,1,1-trifluoro-3-hydroxypropan-2-yl)-3,4-dihydro-1,4-methanopyrido[2,3-b][1,4]diazepine-5,7(2H)-dicarboxamide] | – |
| > 150 | A (EC1.5<1 μM) | O=C(NC1CCCC1)c1ccc2c(n1)N(C(=O)Nc1ccccn1)[C@H]1CCN2C1 [Example 35, (4S)—N7-cyclopentyl-N5-(pyridin-2-yl)-3,4-dihydro-1,4-methanopyrido[2,3-b][1,4]diazepine-5,7(2H)-dicarboxamide] | – |
| > 150 | A (EC1.5<1 μM) | O=C(NCC(F)(F)F)c1ccc2c(n1)N(C(=O)Nc1ccccn1)[C@H]1CCN2C1 [Example 1] | – |
| > 150 | B (EC1.5 1-25 μM) | NCC(NC(=O)c1ccc2c(n1)N(C(=O)Nc1ccccn1)[C@H]1CCN2C1)C(F)(F)F (single isomer, unassigned) [Example 223] | – |
| > 150 | B (EC1.5 1-25 μM) | CC(C)(CO)NC(=O)c1ccc2c(n1)N(C(=O)Nc1ccccn1)[C@H]1CCN2C1 [Example 200, (4S)—N7-(1-hydroxy-2-methylpropan-2-yl)-N5-(pyridin-2-yl)-3,4-dihydro-1,4-methanopyrido[2,3-b][1,4]diazepine-5,7(2H)-dicarboxamide] | – |
| > 150 | A (EC1.5<1 μM) | O=C(NC1CCC1)c1ccc2c(n1)N(C(=O)Nc1ccccn1)[C@H]1CCN2C1 [Example 7, (4S)—N-7-cyclobutyl-N-5-(pyridin-2-yl)-3,4-dihydro-1,4-methanopyrido [2,3-b] [1, 4] diazepine-5, 7(2H)-dicarboxamide] | – |
| > 150 | A (EC1.5<1 μM) | C[C@@H](NC(=O)c1ccc2c(n1)N(C(=O)Nc1ccccn1)[C@H]1CCN2C1)C(F)(F)F [Example 19, (4S)—N5-(pyridin-2-yl)-N7-((R)-1,1,1-trifluoropropan-2-yl)-3,4-dihydro-1,4-methanopyrido[2,3-b][1,4]diazepine-5,7(2H)-dicarboxamide] | – |
| – | A (EC1.5<1 μM) | CC(NC(=O)c1ccc2c(n1)N(C(=O)Nc1ccccn1)[C@H]1CCN2C1)C1CC1 (single isomer, unassigned) [Example 101] | – |
| > 150 | A (EC1.5<1 μM) | C[C@@H](NC(=O)c1ccc2c(n1)N(C(=O)Nc1ccc(F)cn1)[C@H]1CCN2C1)C(F)(F)F [Example 129, (4S)—N5-(5-fluoropyridin-2-yl)-N7-((R)-1,1,1-trifluoropropan-2-yl)-3,4-dihydro-1,4-methanopyrido[2,3-b][1,4]diazepine-5,7(2H)-dicarboxamide] | – |
| > 150 | A (EC1.5<1 μM) | O=C(NC1CC1)c1ccc2c(n1)N(C(=O)Nc1ccccn1)[C@H]1CCN2C1 [Example 2, (4S)—N7-cyclopropyl-N5-(pyridin-2-yl)-3,4-dihydro-1,4-methano pyrido[2,3-b][1,4]diazepine-5, 7(2H)-dicarboxamide] | – |
